Results on 15 compounds are retold here after US8168592B2 (Amgen Inc., priority 2005, dated 2012).

Like-named read-outs stand apart in the source and are kept apart here. Bridge positions count the residues as written; N and C are the ends. Square brackets hold non-standard residues; d marks the D form. Peptide text beside a SMILES is read from it. Bip = N[C@@H](Cc1ccc(-c2ccccc2)cc1)C(=O)O; Oic = O=C(O)[C@@H]1C[C@@H]2CCCC[C@@H]2N1; 1Nal = N[C@@H](Cc1cccc2ccccc12)C(=O)O; 2Nal = N[C@@H](Cc1ccc2ccccc2c1)C(=O)O; hArg = N=C(N)NCCCC[C@H](N)C(=O)O; Cit = NC(=O)NCCC[C@H](N)C(=O)O A value given as a limit tells only on which side of the number the result lay.

The target in this assay is T1, CGRP1 receptor (Homo sapiens, UniProt O60894+Q16602).
T1 construct: SK-N-MC cells express CRLR and RAMP1, which form CGRP1 receptor; endogenous in cells; host or cells: SK-N-MC human neuroblastoma cells
T1 sequence (Q16602 23-461): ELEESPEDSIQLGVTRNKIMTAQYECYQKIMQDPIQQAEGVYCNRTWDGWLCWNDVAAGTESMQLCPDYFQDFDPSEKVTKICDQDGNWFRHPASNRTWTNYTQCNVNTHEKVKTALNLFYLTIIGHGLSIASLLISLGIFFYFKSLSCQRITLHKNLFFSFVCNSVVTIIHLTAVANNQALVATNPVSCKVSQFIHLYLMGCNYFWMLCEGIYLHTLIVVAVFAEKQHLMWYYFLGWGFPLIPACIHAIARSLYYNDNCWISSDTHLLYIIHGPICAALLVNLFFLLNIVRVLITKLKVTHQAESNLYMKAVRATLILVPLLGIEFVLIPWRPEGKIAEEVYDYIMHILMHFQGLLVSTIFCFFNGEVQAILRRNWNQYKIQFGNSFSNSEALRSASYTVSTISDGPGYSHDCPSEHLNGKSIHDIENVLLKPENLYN
T1 sequence (O60894 27-148): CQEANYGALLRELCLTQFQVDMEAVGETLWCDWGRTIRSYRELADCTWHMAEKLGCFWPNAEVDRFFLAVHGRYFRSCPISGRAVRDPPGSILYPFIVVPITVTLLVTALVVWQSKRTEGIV
The assay can be described thus: in vitro CGRP1 receptor mediated cAMP assay in SK-N-MC cells. Type of assay: cell-based. The method in brief: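 Human SK-N-MC neuroblastoma cells, which endogenously express CRLR/RAMP1, were plated two days before assay and preincubated in plasma-free medium for 15 minutes at room temperature. Cells were then lysed for 30 minutes at 37° C, and cAMP in the lysates was quantified by competitive cAMP-AP chemiluminescent ELISA.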

[1] abbreviates: Table 2C, unconjugated peptide, read-out: Peptide IC50.

`CC[C@H](C)[C@H](NC(=O)[C@H](CCCNC(N)=O)NC(=O)[C@H](Cc1c[nH]cn1)NC(=O)[C@@H](NC(=O)[C@@H](NC(=O)[C@H](Cc1c[nH]c2ccccc12)NC(C)=O)C(C)C)[C@@H](C)O)C(=O)N[C@@H](CC(C)C)C(=O)N[C@@H](C)C(=O)NCC(=O)N[C@@H](CC(C)C)C(=O)N[C@@H](CC(C)C)C(=O)N1CCC[C@H]1C(=O)N[C@@H](CCCNC(=N)N)C(=O)N[C@@H](CO)C(=O)NCC(=O)NCC(=O)N[C@H](C(=O)N[C@H](C(=O)N[C@@H](CCCNC(=N)N)C(=O)N[C@@H](CCCCN)C(=O)N[C@@H](CC(N)=O)C(=O)N[C@@H](Cc1ccccc1)C(=O)N[C@H](C(=O)N1CCC[C@H]1C(=O)N[C@H](C(=O)N[C@@H](CC(=O)O)C(=O)N[C@H](C(=O)NCC(=O)N1CCC[C@H]1C(=O)N[C@@H](Cc1ccccc1)C(=O)N[C@@H](C)C(=O)N[C@@H](Cc1ccccc1)C(N)=O)C(C)C)[C@@H](C)O)C(C)C)C(C)C)C(C)C` [compound 867] (Ac-WVTH[Cit]ILAGLLPRSGGVVRKNFVPTDVGPFAF-NH2): the concentration for half-maximal inhibition (IC50) (as a rule, the concentration needed to halve the response being measured) under setting [1] was 2.31 nM.
For the compound `CC(=O)N[C@@H](Cc1c[nH]c2ccccc12)C(=O)N[C@H](C(=O)N[C@H](C(=O)N[C@@H](Cc1cnc[nH]1)C(=O)N[C@@H](CCCNC(N)=O)C(=O)N[C@@H](CC(C)C)C(=O)N[C@@H](C)C(=O)NCC(=O)N[C@@H](CC(C)C)C(=O)N[C@@H](CC(C)C)C(=O)N[C@@H](CO)C(=O)N[C@@H](CCCN=C(N)N)C(=O)N[C@@H](CO)C(=O)NCC(=O)NCC(=O)N[C@H](C(=O)N[C@H](C(=O)N[C@@H](CCCN=C(N)N)C(=O)N[C@@H](CCCCN)C(=O)N[C@@H](CC(N)=O)C(=O)N[C@@H](Cc1ccccc1)C(=O)N[C@H](C(=O)N1CCC[C@H]1C(=O)N[C@H](C(=O)N[C@@H](CC(=O)O)C(=O)N[C@H](C(=O)NCC(=O)N1CCC[C@H]1C(=O)N[C@@H](Cc1ccccc1)C(=O)N[C@@H](C)C(=O)N[C@@H](Cc1ccccc1)C(N)=O)C(C)C)[C@@H](C)O)C(C)C)C(C)C)C(C)C)[C@@H](C)O)C(C)C` [compound 861], the concentration for half-maximal inhibition (IC50) under setting [1] was found to be 0.57 nM.
In turn, `CC(=O)N[C@@H](Cc1c[nH]c2ccccc12)C(=O)N[C@H](C(=O)N[C@H]1CCC(=O)NCCCC[C@@H](C(=O)NCC(=O)N[C@@H](CC(C)C)C(=O)N[C@@H](CC(C)C)C(=O)N[C@@H](CO)C(=O)N[C@@H](CCCNC(N)=O)C(=O)N[C@@H](CO)C(=O)NCC(=O)NCC(=O)N[C@H](C(=O)N[C@H](C(=O)N[C@@H](CCCCNC(=N)N)C(=O)N[C@@H](CCCCN)C(=O)N[C@@H](CC(N)=O)C(=O)N[C@@H](Cc2ccccc2)C(=O)N[C@H](C(=O)N2CCC[C@H]2C(=O)N[C@H](C(=O)N[C@@H](CC(=O)O)C(=O)N[C@H](C(=O)NCC(=O)N2CCC[C@H]2C(=O)N[C@@H](Cc2ccccc2)C(=O)N[C@@H](C)C(=O)N[C@@H](Cc2ccccc2)C(N)=O)C(C)C)[C@@H](C)O)C(C)C)C(C)C)C(C)C)NC(=O)[C@H](CC(C)C)NC(=O)[C@H](CCCNC(=N)N)NC(=O)[C@H](Cc2c[nH]cn2)NC1=O)C(C)C` [compound 663] (Ac-WVEHRLKGLLS[Cit]SGGVV[hArg]KNFVPTDVGPFAF-NH2; lactam 3-7) yielded an IC50 (IC50, Table 2A) of 1.22 to 2.06 nM.
As to “SEQ ID NO:28 (WVTHXLAGLLSRSGGVVRKNFVPTDVGPFAF; CGRP peptide; MOD_RES (1)..(1): …ON; MISC_FEATURE (5)..(5): xaa=citrulline; MISC_FEATURE (19)..(19): PEGylated; MOD_RES (31)..(31): AMIDATION)”, the “antagonist activity in cAMP assay, in words” value (shortened to “antagonist activity”) is listed as “relatively minor loss of in vitro antagonist activity”.
Consider `CC(=O)N[C@@H](Cc1c[nH]c2ccccc12)C(=O)N[C@H](C(=O)N[C@H](C(=O)N[C@@H](Cc1c[nH]cn1)C(=O)N[C@@H](CCCCNC(=N)N)C(=O)N[C@@H](CC(C)C)C(=O)N[C@@H](C)C(=O)NCC(=O)N[C@@H](CC(C)C)C(=O)N[C@@H](CC(C)C)C(=O)N[C@@H](CO)C(=O)N[C@@H](CCCNC(N)=O)C(=O)N[C@@H](CO)C(=O)NCC(=O)NCC(=O)N[C@H](C(=O)N[C@H](C(=O)N[C@@H](CCCCNC(=N)N)C(=O)N[C@@H](CCCCN)C(=O)N[C@@H](CC(N)=O)C(=O)N[C@@H](Cc1ccccc1)C(=O)N[C@H](C(=O)N1CCC[C@H]1C(=O)N[C@H](C(=O)N[C@@H](CC(=O)O)C(=O)N[C@H](C(=O)NCC(=O)N1CCC[C@H]1C(=O)N[C@@H](Cc1ccc2ccccc2c1)C(=O)N[C@@H](C)C(=O)N[C@@H](Cc1ccccc1)C(N)=O)C(C)C)[C@@H](C)O)C(C)C)C(C)C)C(C)C)[C@@H](C)O)C(C)C` [compound 926] (Ac-WVTH[hArg]LAGLLS[Cit]SGGVV[hArg]KNFVPTDVGP[2Nal]AF-NH2), for which, under setting [1], the IC50 was 0.88 nM.
As to “Ac-WVTHRLAGLLSRSGGVVCNNFVPTDVGPFAF-NH2 [compound 9]”, the IC50 (Table 3, unconjugated CGRP peptide analogs, n = 2-4, read-out: IC50) is 2.15 nM.
As for “SEQ ID NO:9 (Ac-WVTHRLAGLLSRSGGVVCNNFVPTDVGPFAF-NH2)”, the “antagonist activity” value is recorded as “somewhat less active”.
Turning to `CC(=O)N[C@@H](Cc1c[nH]c2ccccc12)C(=O)N[C@H](C(=O)N[C@H](C(=O)N[C@@H](Cc1c[nH]cn1)C(=O)N[C@@H](CCCNC(N)=O)C(=O)N[C@@H](CC(C)C)C(=O)N[C@@H](C)C(=O)NCC(=O)N[C@@H](CC(C)C)C(=O)N[C@@H](CC(C)C)C(=O)N[C@@H](CO)C(=O)N[C@@H](CCCNC(N)=O)C(=O)N[C@@H](CO)C(=O)NCC(=O)NCC(=O)N[C@H](C(=O)N[C@H](C(=O)N[C@@H](CCCCNC(=N)N)C(=O)N[C@@H](CCCCN)C(=O)N[C@@H](CC(N)=O)C(=O)N[C@@H](Cc1ccccc1)C(=O)N[C@H](C(=O)N1CCC[C@H]1C(=O)N[C@H](C(=O)N[C@@H](CC(=O)O)C(=O)N[C@H](C(=O)NCC(=O)N1CCC[C@H]1C(=O)N[C@@H](Cc1cccc2ccccc12)C(=O)N[C@@H](C)C(=O)N[C@@H](Cc1ccccc1)C(N)=O)C(C)C)[C@@H](C)O)C(C)C)C(C)C)C(C)C)[C@@H](C)O)C(C)C` [compound 144] (Ac-WVTH[Cit]LAGLLS[Cit]SGGVV[hArg]KNFVPTDVGP[1Nal]AF-NH2), the IC50 (Table 2A, read-out: IC50) was found to be 2.24 nM.
As for `CC(=O)N[C@H](C(=O)N[C@H](C(=O)N[C@@H](Cc1c[nH]cn1)C(=O)N[C@@H](CCCNC(N)=O)C(=O)N[C@@H](CC(C)C)C(=O)N[C@@H](C)C(=O)NCC(=O)N[C@@H](CC(C)C)C(=O)N[C@@H](CC(C)C)C(=O)N[C@@H](CO)C(=O)N[C@@H](CCCNC(N)=O)C(=O)N[C@@H](CO)C(=O)NCC(=O)NCC(=O)N[C@H](C(=O)N[C@H](C(=O)N[C@@H](CCCCNC(=N)N)C(=O)N[C@@H](CCCCN)C(=O)N[C@@H](CC(N)=O)C(=O)N[C@@H](Cc1ccccc1)C(=O)N[C@H](C(=O)N1CCC[C@H]1C(=O)N[C@H](C(=O)N[C@@H](CC(=O)O)C(=O)N[C@H](C(=O)NCC(=O)N1[C@H](C(=O)N[C@@H](Cc2ccccc2)C(=O)N[C@@H](C)C(=O)N[C@@H](Cc2ccccc2)C(N)=O)C[C@@H]2CCCC[C@@H]21)C(C)C)[C@@H](C)O)C(C)C)C(C)C)C(C)C)[C@@H](C)O)C(C)C` [compound 660] (Ac-VTH[Cit]LAGLLS[Cit]SGGVV[hArg]KNFVPTDVG[Oic]FAF-NH2), the IC50 (Table 2A, read-out: IC50) is 3 nM.
For “805 (Ac-WVTHRLAGLLSRSGGVVRC(20 kDa MeO‑PEG)NFVPTDVGPFAF-NH2) [compound 805]”, where the note is “Table 2D, read-out: IC50”, the IC50 was found to be 1.33 nM.
Still for that read-out and setting: then “Ac-WVTHRLAGLLSRPGGVVRKNFVPTDVGPFAF-NH2 [compound 854]”, with 1.27 nM; and “Ac-WVTHRLAGLLSRSGGVCRNNFVPTDVGPFAF-NH2 [compound 820]”, with 0.36 nM.
In the case of “SEQ ID NO:21 (WVTHXLAGLLSRSGGVVRKNFVPTDVGPFAF; CGRP peptide; MOD_RES (1)..(1): …ON; MISC_FEATURE (5)..(5): xaa=homoarginine; MOD_RES (31)..(31): AMIDATION)”, the “antagonist activity” value is “well tolerated”.
As for `CC(=O)N[C@@H](Cc1c[nH]c2ccccc12)C(=O)N[C@H](C(=O)N[C@H](C(=O)N[C@@H](Cc1c[nH]cn1)C(=O)N[C@@H](CCCNC(N)=O)C(=O)N[C@@H](CC(C)C)C(=O)N[C@@H](C)C(=O)NCC(=O)N[C@@H](CC(C)C)C(=O)N[C@@H](CC(C)C)C(=O)N[C@@H](CO)C(=O)N[C@@H](CCCNC(N)=O)C(=O)N[C@@H](CO)C(=O)NCC(=O)NCC(=O)N[C@H](C(=O)N[C@H](C(=O)N[C@@H](CCCCNC(=N)N)C(=O)N[C@@H](CCCCN)C(=O)N[C@@H](CC(N)=O)C(=O)N[C@@H](Cc1ccccc1)C(=O)N[C@H](C(=O)N1[C@H](C(=O)N[C@H](C(=O)N[C@@H](CC(=O)O)C(=O)N[C@H](C(=O)NCC(=O)N2CCC[C@H]2C(=O)N[C@@H](Cc2ccc(-c3ccccc3)cc2)C(=O)N[C@@H](C)C(=O)N[C@@H](Cc2ccccc2)C(N)=O)C(C)C)[C@@H](C)O)C[C@@H]2CCCC[C@@H]21)C(C)C)C(C)C)C(C)C)[C@@H](C)O)C(C)C` [compound 134] (Ac-WVTH[Cit]LAGLLS[Cit]SGGVV[hArg]KNFV[Oic]TDVGP[Bip]AF-NH2), for the setting “Table 2A, read-out: IC50”, the half-maximal inhibitory concentration (IC50) is 3.85 nM.
Still for that read-out and setting: then `CC(=O)N[C@@H](Cc1c[nH]c2ccccc12)C(=O)N[C@H](C(=O)N[C@H](C(=O)N[C@@H](Cc1c[nH]cn1)C(=O)N[C@@H](CCCNC(N)=O)C(=O)N[C@@H](CC(C)C)C(=O)N[C@@H](C)C(=O)NCC(=O)N[C@@H](CC(C)C)C(=O)N[C@@H](CC(C)C)C(=O)N[C@@H](CO)C(=O)N[C@@H](CCCNC(N)=O)C(=O)N[C@@H](CO)C(=O)NCC(=O)NCC(=O)N[C@H](C(=O)N[C@H](C(=O)N[C@@H](CCCCNC(=N)N)C(=O)N[C@@H](CCCCN)C(=O)N[C@@H](CC(N)=O)C(=O)N[C@@H](Cc1ccccc1)C(=O)N[C@H](C(=O)N1CCC[C@H]1C(=O)N[C@H](C(=O)N[C@@H](CC(=O)O)C(=O)N[C@H](C(=O)NCC(=O)N1CCC[C@H]1C(N)=O)C(C)C)[C@@H](C)O)C(C)C)C(C)C)C(C)C)[C@@H](C)O)C(C)C` [compound 656] (Ac-WVTH[Cit]LAGLLS[Cit]SGGVV[hArg]KNFVPTDVGP-NH2), with over 1000 nM.
